# Values joined by “and” are separate entries in the source; they are usually repeats but may differ in a detail not shown here. Equal values may be shown once. “Also recorded” adds a separate entry of the source. Where a name gives a salt, the structure may show the parent alone. Read-outs that look alike come from different tables or passages of the source.
# Key:
# hH3R [1] = conditions: cited from earlier work
# [2] = system: AChE extracted from mouse brains (mbAChE); set-up: method as in PMID 30822710; conditions: cited from earlier work
# mpBuChE = system: mpBuChE; set-up: method as in PMID 30822710; conditions: cited from earlier work
# human H3 receptor (hH3R) = target: T1, human H3 receptor (hH3R) (Homo sapiens, UniProt Q9Y5N1); assay: [3H]-Nα-methylhistamine radioligand binding assay, HEK293 cell membranes expressing hH3R; conditions: hH3R Ki Mean [CI 95%], HEK293 cells expressing human H3 receptor; at least three independent repetitions
# T1 construct: expressed in transfected cells; host or cells: HEK293
# T1 sequence (Q9Y5N1 whole entry): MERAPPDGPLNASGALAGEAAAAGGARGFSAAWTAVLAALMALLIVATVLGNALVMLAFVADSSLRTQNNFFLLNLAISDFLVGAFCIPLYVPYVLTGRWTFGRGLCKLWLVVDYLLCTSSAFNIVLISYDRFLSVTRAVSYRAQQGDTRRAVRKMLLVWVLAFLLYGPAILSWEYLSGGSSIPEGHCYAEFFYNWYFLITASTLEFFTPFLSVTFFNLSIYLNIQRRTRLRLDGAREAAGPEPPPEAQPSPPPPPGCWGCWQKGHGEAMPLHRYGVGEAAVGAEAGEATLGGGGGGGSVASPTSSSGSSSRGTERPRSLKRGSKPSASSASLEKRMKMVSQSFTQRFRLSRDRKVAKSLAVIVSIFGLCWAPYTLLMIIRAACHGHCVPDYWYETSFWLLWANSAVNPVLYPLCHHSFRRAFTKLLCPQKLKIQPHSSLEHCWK
# Experimental: The affinity for hH3R was assessed in vitro in radioligand binding assays, using membrane preparations of HEK293 cells stably expressing hH3R, while [^3H]-N^α-methylhistamine was used as a radioligand. The exact procedure was described previously by Kottke et al.. Novel compounds were tested as oxalic acid salts. […]. The activity depended on all three variables, i.e., the presence of an amine group, the chain length (five or six carbons), and the type of substituent in the phenyl ring. With regard to the change in the amine moiety, it can be observed that, regardless of the length of the chain and the type of R substituent, the activity of the derivatives was arranged in the following order: 3-methylpiperidine ≥ piperidine ≥ azepane >> 4-metylpiperidine derivatives. Regarding the length of the carbon chain, compounds bearing the pentylene chain are characterized by a higher binding affinity to the receptor than hexylene derivatives (exception: 10). […]
# H3R receptor affinity assays were performed in the radioligand competition assay. Human H3R was stably expressed in HEK293 cells. [^3H]-N^α-Methylhistamine (KD = 3.08 nM) was used as the radioligand. The compounds used in the experiments were dissolved in DMSO. The precise experiment was performed as previously described. Complete curves were obtained for at least seven approximate concentrations, in at least three independent experiments, performed at least in duplicate. Ki values were calculated using the Cheng–Prusoff equation. Results are presented as mean values with confidence intervals (CI) (95%).
# [3] = target: T2, AChE from electrophorus electricus (eeAChE) (Electrophorus electricus, UniProt O42275); assay: modified Ellman colorimetric assay, eeAChE; format: biochemical; conditions: for IC50: three independent experiments, read-out: eeAChE IC50 Mean ± SEM
# T2 construct: purchased Sigma-Aldrich (Steinheim, Germany)
# T2 sequence (O42275 24-633): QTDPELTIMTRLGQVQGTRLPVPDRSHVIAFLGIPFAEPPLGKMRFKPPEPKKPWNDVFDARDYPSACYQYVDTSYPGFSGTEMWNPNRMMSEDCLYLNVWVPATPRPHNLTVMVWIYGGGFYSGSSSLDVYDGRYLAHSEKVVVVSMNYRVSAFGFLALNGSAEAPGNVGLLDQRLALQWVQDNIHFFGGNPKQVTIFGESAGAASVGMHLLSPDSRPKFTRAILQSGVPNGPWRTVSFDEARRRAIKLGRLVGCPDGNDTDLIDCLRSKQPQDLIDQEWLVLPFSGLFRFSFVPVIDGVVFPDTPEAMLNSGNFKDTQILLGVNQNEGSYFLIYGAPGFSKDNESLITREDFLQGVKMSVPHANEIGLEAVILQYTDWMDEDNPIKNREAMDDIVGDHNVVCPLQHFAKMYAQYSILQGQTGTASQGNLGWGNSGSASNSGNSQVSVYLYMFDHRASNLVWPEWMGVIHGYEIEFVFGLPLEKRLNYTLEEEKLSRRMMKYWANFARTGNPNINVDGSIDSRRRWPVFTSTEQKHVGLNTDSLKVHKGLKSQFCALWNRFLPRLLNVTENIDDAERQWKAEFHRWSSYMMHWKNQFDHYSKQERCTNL
# Experimental: All compounds were tested at a concentration of 10 µM in a modified colorimetric method first described by Ellman et al. in the 1960s, using AChE from electrophorus electricus (eeAChE) and BuChE from equine serum (eqBuChE). […]. All results are collected in Table 1. […]. […] No correlation was observed between inhibitory activity and hH3R affinity. The most interesting compounds were among the azepane derivatives. […]. AChE from electrophorus electricus and BuChE from equine serum were purchased from Sigma-Aldrich (Steinheim, Germany). The whole procedure was performed as previously described, using a modified Ellman method in 96-well microplates. Absorbance was measured using an EnSpire multimode microplate reader (PerkinElmer, Waltham, MA, USA) at 412 nm. Initial screening was performed for compounds at a concentration of […]. The percentage of inhibition was calculated by comparison with a blank sample (100% enzyme activity). For compounds showing >70% inhibition of enzyme activity, IC50 values were determined, measuring absorbance at six different inhibitor concentrations. Each concentration was measured in triplicate. IC50 values were calculated using GrapPad Prism 9 software (GraphPad Software, San Diego, CA, USA). Data are expressed as mean ± SEM.
# [4] = target: T3, BuChE from equine serum (eqBuChE) (Equus caballus, UniProt P81908); assay: biochemical; conditions: for IC50: three independent experiments, read-out: eqBuChE IC50 Mean ± SEM
# T3 construct: BuChE from equine serum (eqBuChE); purchased Sigma-Aldrich (Steinheim, Germany); host or cells: equine serum
# T3 sequence (P81908 whole entry): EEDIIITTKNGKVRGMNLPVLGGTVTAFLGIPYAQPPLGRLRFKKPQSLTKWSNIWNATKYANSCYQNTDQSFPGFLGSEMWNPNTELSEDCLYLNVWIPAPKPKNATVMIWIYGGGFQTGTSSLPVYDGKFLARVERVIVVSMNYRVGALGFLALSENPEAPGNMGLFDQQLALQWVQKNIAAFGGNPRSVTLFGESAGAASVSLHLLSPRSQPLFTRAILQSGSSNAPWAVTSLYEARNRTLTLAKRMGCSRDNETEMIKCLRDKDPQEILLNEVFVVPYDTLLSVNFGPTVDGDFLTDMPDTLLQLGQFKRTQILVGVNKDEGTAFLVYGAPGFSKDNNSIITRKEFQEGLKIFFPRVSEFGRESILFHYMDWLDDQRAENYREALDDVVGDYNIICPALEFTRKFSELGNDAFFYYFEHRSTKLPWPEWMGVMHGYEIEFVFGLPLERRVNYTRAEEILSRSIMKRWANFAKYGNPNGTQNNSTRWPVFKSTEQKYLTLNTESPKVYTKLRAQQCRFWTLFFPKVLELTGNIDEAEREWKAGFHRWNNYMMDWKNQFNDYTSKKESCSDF
# Experimental: AChE from electrophorus electricus and BuChE from equine serum were purchased from Sigma-Aldrich (Steinheim, Germany). The whole procedure was performed as previously described, using a modified Ellman method in 96-well microplates. […] Initial screening was performed for compounds at a concentration of […]. The percentage of inhibition was calculated by comparison with a blank sample (100% enzyme activity). […] Each concentration was measured in triplicate. IC50 values were calculated using GrapPad Prism 9 software (GraphPad Software, San Diego, CA, USA). Data are expressed as mean ± SEM.
# hMAO B = target: T4, hMAO B (Homo sapiens, UniProt P27338); assay: fluorometric Amplex red MAO assay; format: biochemical; conditions: at 1 µM; two independent experiments; read-out: hMAO B % inh
# T4 construct: purchased Sigma-Aldrich (Steinheim, Germany)
# T4 sequence (P27338 1-520): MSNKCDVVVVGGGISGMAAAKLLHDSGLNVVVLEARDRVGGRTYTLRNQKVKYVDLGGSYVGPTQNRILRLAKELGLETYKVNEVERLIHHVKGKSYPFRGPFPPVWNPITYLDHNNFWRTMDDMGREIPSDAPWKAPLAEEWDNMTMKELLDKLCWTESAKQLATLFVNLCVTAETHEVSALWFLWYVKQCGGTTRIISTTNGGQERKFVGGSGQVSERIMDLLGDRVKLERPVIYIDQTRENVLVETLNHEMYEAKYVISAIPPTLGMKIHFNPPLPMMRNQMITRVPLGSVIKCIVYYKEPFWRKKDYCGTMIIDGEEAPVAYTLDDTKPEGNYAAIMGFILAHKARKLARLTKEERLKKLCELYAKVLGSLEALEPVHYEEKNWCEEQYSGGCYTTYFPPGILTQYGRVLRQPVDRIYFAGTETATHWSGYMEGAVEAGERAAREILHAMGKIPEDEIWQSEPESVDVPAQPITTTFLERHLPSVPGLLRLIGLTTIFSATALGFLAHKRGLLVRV
# Experimental: The ability to inhibit MAO B was estimated by a fluorescence assay, as previously described.
# The enzyme was purchased from Sigma-Aldrich (Steinheim, Germany). Screening was carried out at a concentration of 1 micromolar. Inhibitor activity was measured in the presence of p-tyramine.
# Data are expressed as mean values of two independent experiments.
# MTS assay in HepG2 cells = format: cell-based; conditions: human, HepG2 hepatoma cells; at 50 µM, percentage of control (vehicle-treated cells); read-out: HepG2 Cell Viability (%)
# Experimental: (§1) . After the indicated time, the MTS reagent was added directly to the cultured cells for 1 h, and then the absorbance at 490 nm was read. […] The results are presented in Table 2 and Figures S1 and S2 (Supplementary Materials).
# (§2) The hepatoma cell line HepG2 (ATCC® HB-8065TM) and SH-SY5Y CRL-2266 neuroblastoma cell line were used to evaluate the toxicity of tested compounds. Tests were conducted as described previously. The CellTiter 96® Aqueous Non-Radioactive Cell Proliferation Assay was purchased from Promega (Madison, WI, USA). […]. […] Each experiment was performed twice, in triplicate.
# HepG2 cells = assay: MTS assay in HepG2 cells; format: cell-based; conditions: Homo sapiens, HepG2; MTS assay, 48 h of exposure
# Experimental: as §1, §2
# [5] = MTS assay in SH-SY5Y cells; format: cell-based; conditions: human, SH-SY5Y neuroblastoma cells; at 50 µM, percentage of control (vehicle-treated cells); read-out: SH-SY5Y Cell Viability (%)
# Experimental: as §1, §2
# SH-SY5Y cells = assay: MTS assay in SH-SY5Y cells; format: cell-based; conditions: Homo sapiens, SH-SY5Y; MTS assay, 24 h of exposure
# Experimental: as §1, §2
# [6] = MTS assay, statements on both cell lines together; format: cell-based, human; conditions: human, HepG2 hepatoma cells and SH-SY5Y neuroblastoma cells; HepG2 48 h, SH-SY5Y 24 h; up to 50 µM; read-out: cell viability at the highest doses tested
# [7] = target: T2, AChE from electrophorus electricus (eeAChE); conditions: cited from earlier work
# [8] = target: T3, BuChE from equine serum (eqBuChE); conditions: cited from earlier work
# hH3R [9] = conditions: cited from earlier work; remark: listed apart in the source
# eqBuChE = target: T5, eqBuChE (Equus caballus, UniProt P81908); assay: kinetic study of eqBuChE inhibition (Lineweaver-Burk, Cornish-Bowden plots); format: biochemical, equine; conditions: substrate butyrylthiocholine
# T5 construct: BuChE from equine serum (eqBuChE); purchased Sigma-Aldrich (Steinheim, Germany); host or cells: equine serum
# T5 sequence (P81908 whole entry): as the sequence (P81908 whole entry) above
# Experimental: The Michaelis–Menten equation was used to calculate the maximum velocity (Vmax) and the Michaelis constant (Km).
# (§3) The type of line intersection and the location of this intersection confirms the mixed type of inhibition.
# (§4) Studies were performed with compounds 16 and 17 using a method as described previously. Vmax and Km values of the Michaelis–Menten kinetics were calculated by nonlinear regression from substrate–velocity curves. Lineweaver–Burk and Cornish–Bowden plots were calculated using linear regression in GraphPad Prism 9 software (GraphPad Software, San Diego, CA, USA). Each experiment was performed in triplicate.
# HepG2 and SH-SY5Y cells = assay: MTS assay, statements on both cell lines together; format: cell-based, human; conditions: HepG2 or SH-SY5Y cells; up to 50 µM
# eeAChE = target: T6, eeAChE (Electrophorus electricus, UniProt O42275); assay: kinetic study of eeAChE inhibition (Lineweaver-Burk, Cornish-Bowden plots); format: biochemical; conditions: substrate acetylthiocholine
# T6 construct: purchased Sigma-Aldrich (Steinheim, Germany)
# T6 sequence (O42275 24-633): as the sequence (O42275 24-633) above
# Experimental: […]. The Michaelis–Menten equation was used to calculate the maximum velocity (Vmax) and the Michaelis constant (Km).
# as §3, §4
structure (smiles),measurement,setting,value
CCN(C)CCCCOc1ccc2c(=O)c(-c3ccc(OCCN4CCCCC4)cc3)coc2c1 [II],IC50,hH3R [1],0.27 µM
same,IC50,[2],0.08 µM
same,IC50,mpBuChE,2.89 µM
"CC(=O)c1ccc(OCCCCCN2CCCC(C)C2)cc1 (stereo not shown) [Compound 6, 1-(4-((5-(3-Methylpiperidin-1-yl)pentyl)oxy)phenyl)ethan-1-one hydrogen oxalate]",Ki,human H3 receptor (hH3R),< 0.05 µM and 0.026 µM
same,IC50,[3],3.06 ± 0.1 µM
same,inhibition at 10 µM,"[4]; at 10 µM, read-out: eqBuChE % inh",14%
same,inhibition at 1 µM,hMAO B,10%
same,"viability at 48 h, 50 µM",MTS assay in HepG2 cells,74.3 ± 5.58%
same,IC50,HepG2 cells,120 µM
same,"viability at 24 h, 50 µM",[5],86.2 ± 2.2%
same,IC50,SH-SY5Y cells,149 µM
same,viability at 50 µM,[6],> 50%
CN1CCN(CCCN(C)C(=O)c2cc3ccc(Cl)cc3[nH]2)CC1 [I],IC50,[7],9.09 µM
same,IC50,[8],21.1 µM
same,EC50,hH3R [1],0.73 µM
O=C(c1ccccc1)c1ccc(OCCCCCN2CCCCCC2)cc1 [lead 2],IC50,[7],4.63 µM
same,IC50,[8],0.68 µM
same,Ki,hH3R [9],0.04 µM
C=CCN1CCN(CC2Cc3cc(C(C)(C)C)ccc3O2)CC1 (stereo not shown) [VI],IC50,[7],19.1 µM
same,IC50,[8],13.2 µM
same,Ki,hH3R [9],0.016 µM
"CCC(=O)c1ccc(OCCCCCN2CCC(C)CC2)cc1 [Compound 12, 1-(4-((5-(4-Methylpiperidin-1-yl)pentyl)oxy)phenyl)propan-1-one hydrogen oxalate]",Ki,human H3 receptor (hH3R),0.057 µM
same,inhibition at 10 µM,"[3]; at 10 µM, read-out: eeAChE % inh",58%
same,IC50,[4],1.29 ± 0.08 µM
same,inhibition at 1 µM,hMAO B,0%
same,"viability at 48 h, 50 µM",MTS assay in HepG2 cells,77.2 ± 4.14%
same,IC50,HepG2 cells,149 µM
same,"viability at 24 h, 50 µM",[5],90.7 ± 12.9%
same,IC50,SH-SY5Y cells,421 µM
same,viability at 50 µM,[6],> 50%
"CCC(=O)c1ccc(OCCCCCN2CCCCCC2)cc1.O=C(O)C(=O)O [Compound 16, 1-(4-((5-(Azepan-1-yl)pentyl)oxy)phenyl)propan-1-one hydrogen oxalate]",Ki,human H3 receptor (hH3R),< 0.05 µM and 0.03 µM
same,IC50,[3],3.6 ± 0.12 µM
same,IC50,[4],0.55 ± 0.02 µM
same,inhibition at 1 µM,hMAO B,6%
same,"viability at 48 h, 50 µM",MTS assay in HepG2 cells,67.7 ± 1.14%
same,IC50,HepG2 cells,92 µM
same,"viability at 24 h, 50 µM",[5],90.3 ± 5.32%
same,IC50,SH-SY5Y cells,357 µM
same,type of eqBuChE inhibition,eqBuChE,mixed
same,viability at 50 µM,[6],> 50%
same,cell toxicity,HepG2 and SH-SY5Y cells,lack of cell toxicity
"CCC(=O)c1ccc(OCCCCCCN2CCCCCC2)cc1.O=C(O)C(=O)O [Compound 17, 1-(4-((6-(Azepan-1-yl)hexyl)oxy)phenyl)propan-1-one hydrogen oxalate]",Ki,human H3 receptor (hH3R),< 0.05 µM and 0.042 µM
same,IC50,[3],1.06 ± 0.03 µM
same,IC50,[4],2.86 ± 0.03 µM
same,inhibition at 1 µM,hMAO B,5%
same,"viability at 48 h, 50 µM",MTS assay in HepG2 cells,58 ± 3.54%
same,IC50,HepG2 cells,60 µM
same,"viability at 24 h, 50 µM",[5],70.3 ± 4.46%
same,IC50,SH-SY5Y cells,111 µM
same,type of eeAChE inhibition,eeAChE,non-competitive (mixed); also recorded: mixed
same,viability at 50 µM,[6],> 50%
same,cell toxicity,HepG2 and SH-SY5Y cells,lack of cell toxicity
N#Cc1ccc(-c2ccc(OCCCN3CCCCCC3)cc2)cc1 [V],IC50,[7],2.63 µM
same,IC50,[8],1.3 µM
same,Ki,hH3R [9],0.009 µM
"CCC(=O)c1ccc(OCCCCCN2CCCC(C)C2)cc1 (stereo not shown) [Compound 8, 1-(4-((5-(3-Methylpiperidin-1-yl)pentyl)oxy)phenyl)propan-1-one hydrogen oxalate]",Ki,human H3 receptor (hH3R),0.012 µM
same,IC50,[3],2.1 ± 0.06 µM
same,IC50,[4],1.75 ± 0.05 µM
same,inhibition at 1 µM,hMAO B,19%
same,"viability at 48 h, 50 µM",MTS assay in HepG2 cells,70.9 ± 2.92%
same,IC50,HepG2 cells,142 µM
same,"viability at 24 h, 50 µM",[5],90.7 ± 1.5%
same,IC50,SH-SY5Y cells,349 µM
same,viability at 50 µM,[6],> 50%
